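Step 1: Grow cells in 96-well plates. Step 2: Expose to compound for 48 hours at 5 concentrations. Step 3: Interpolate endpoints linearly; if unreached, use highest concentration. The concentration for full growth arrest is given as TGI.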

We go through 15 molecules from PubChem BioAssay (NCI).

Test systems include MDA-N; T-47D breast; NCI/ADR-RES ovarian; BT-549 breast; HS 578T breast; NCI-H23 lung; OVCAR-3 ovarian; SF-295 CNS; K-562 leukemia; SF-539 CNS.
Holding throughout (experiment): NCI anticancer screen, dose series, 48 h

Turning to `O=c1[nH]c(=S)[nH]c2c1C(c1ccc([N+](=O)[O-])cc1)c1c([nH]c(=S)[nH]c1=O)O2`, the TGI with MDA-N, in the test on T-47D breast, with NCI/ADR-RES ovarian, with BT-549 breast, with HS 578T breast and with NCI-H23 lung was > 100 µM in each case. Besides, the TGI in the test on OVCAR-3 ovarian, with SF-295 CNS and with K-562 leukemia was > 100 µM throughout.

As to `N#CC(Cc1ccccc1)N(CCC1=CCCCC1)C(c1ccccc1)c1ccccc1` (stereo unspecified), the TGI in the test on MDA-N, in the test with T-47D breast, in the test on NCI/ADR-RES ovarian, with BT-549 breast, in the test on HS 578T breast and with NCI-H23 lung was > 100 µM each time. The TGI in the test on OVCAR-3 ovarian, in the test with SF-295 CNS and in the test with K-562 leukemia was > 100 µM each time.

With `CCN(CC)CCNC(=O)c1cc2cc(NC(=O)c3cc4cc([N+](=O)[O-])ccc4[nH]3)ccc2[nH]1`, the TGI with MDA-N was > 100 µM; in the test with T-47D breast it was > 100 µM; with NCI/ADR-RES ovarian, > 100 µM; in the test on BT-549 breast, > 100 µM; in the test with NCI-H23 lung, > 100 µM; in the test with OVCAR-3 ovarian it was > 57 µM. The TGI with SF-295 CNS is 65.6 µM; with SF-539 CNS, > 49.7 µM.

As to `O=[N+]([O-])c1ccc2[nH]nc(OCc3ccccc3Cl)c2c1`, the TGI in the test with MDA-N is > 100 µM; in the test with T-47D breast it was 42.9 µM; in the test on NCI/ADR-RES ovarian, > 100 µM; with HS 578T breast it was > 100 µM; in the test with NCI-H23 lung it was > 100 µM; in the test with OVCAR-3 ovarian it was 73.9 µM. Moreover, the figures for the TGI in the test on SF-295 CNS, with SF-539 CNS and in the test with K-562 leukemia were > 100 µM, 50.9 µM and > 100 µM, respectively.

As for `C[C@]12CC[C@H](O)CC1=CC[C@@H]1[C@@H]2CC[C@]2(C)C(=N/N)/C(=N\O)C[C@@H]12`, the TGI with MDA-N was 48.2 µM; in the test on T-47D breast, > 100 µM; in the test on NCI/ADR-RES ovarian it was > 100 µM; in the test with BT-549 breast, > 100 µM; in the test on NCI-H23 lung, > 100 µM; with OVCAR-3 ovarian it was > 100 µM. In addition, the TGI in the test on SF-295 CNS, in the test on SF-539 CNS and with K-562 leukemia was > 100 µM throughout.

In the case of `COC(=O)C1CC(C=[N+](C)C)=C(SC)N1C(=O)OCc1ccccc1` (stereo unspecified), the TGI in the test with MDA-N, in the test on T-47D breast, in the test with NCI/ADR-RES ovarian, with BT-549 breast, in the test with HS 578T breast and in the test on NCI-H23 lung was > 100 µM each time. In addition, the TGI in the test on OVCAR-3 ovarian, in the test with SF-295 CNS and in the test on K-562 leukemia was > 100 µM each time.

For `CC(=O)Nn1c(=S)[nH]c2ccccc21`, the TGI in the test on MDA-N, in the test with T-47D breast, in the test with NCI/ADR-RES ovarian, in the test on BT-549 breast, in the test on HS 578T breast and with NCI-H23 lung was > 100 µM throughout. Further, the TGI in the test on SF-295 CNS and with K-562 leukemia was > 100 µM in each case.

Consider `CC1(C)O[C@H]2OC(CO[Si](C)(C)C(C)(C)C)C(N=[N+]=[N-])[C@H]2O1` (stereo partly specified), for which the TGI amounted to 53.8 µM with MDA-N; 37.7 µM in the test with NCI/ADR-RES ovarian; 36.7 µM with BT-549 breast; 51.5 µM with HS 578T breast; 39 µM in the test with NCI-H23 lung; 38.1 µM in the test on OVCAR-3 ovarian. For the same molecule, the TGI stood at 24.9 µM with SF-295 CNS, 36 µM in the test on SF-539 CNS and 29.1 µM in the test with K-562 leukemia.

On to `COc1cccc(Nc2nc(-c3cccs3)nc3cc(OC)c(OC)cc23)c1`, for which the TGI is > 100 µM in the test with T-47D breast; 63.8 µM in the test on NCI/ADR-RES ovarian; 86 µM in the test on BT-549 breast; 75.3 µM in the test with HS 578T breast; 89.7 µM with NCI-H23 lung; 51.1 µM with OVCAR-3 ovarian. The values for the TGI in the test with SF-295 CNS, with SF-539 CNS and in the test with K-562 leukemia were 53.1 µM, 45.7 µM and > 100 µM, respectively.

Consider `C=CC1(CC/C(=C\[N+](=O)[O-])c2ccc(OC)c(OC)c2)OCC(C)(C)CO1`, for which the TGI in the test with MDA-N is 55.5 µM; with T-47D breast, 33.2 µM; in the test with NCI/ADR-RES ovarian it was 35.5 µM; with BT-549 breast, 31.1 µM; in the test with HS 578T breast it was 79.4 µM; in the test with NCI-H23 lung, 37 µM. Also, the TGI in the test on OVCAR-3 ovarian was 39.8 µM; in the test on SF-295 CNS it was 53.1 µM; in the test on K-562 leukemia, > 100 µM.

On to `N=c1nnc2ccc(Cl)cc2n1O`, for which the TGI in the test on MDA-N, with T-47D breast, with NCI/ADR-RES ovarian, in the test with BT-549 breast, in the test on HS 578T breast and in the test on NCI-H23 lung was > 100 µM each time. The TGI in the test on SF-295 CNS and in the test with K-562 leukemia was > 100 µM in each case.

Take `Nn1c(Nc2ccc(S(=O)(=O)Nc3ncccn3)cc2)nnc(/C=C/c2c(O)ccc3ccccc23)c1=O`: the TGI with MDA-N is > 100 µM; with T-47D breast, 96.8 µM; with NCI/ADR-RES ovarian it was 79.7 µM; with BT-549 breast it was 60 µM; in the test on HS 578T breast, > 100 µM; with NCI-H23 lung, 45.6 µM. The TGI with OVCAR-3 ovarian was 55.9 µM; in the test with K-562 leukemia, > 100 µM.

Regarding `C=C1CCN2CC[C@@H](OC(=O)/C(C)=C\C)[C@@H]12`, the TGI in the test on MDA-N, in the test with T-47D breast, in the test on NCI/ADR-RES ovarian, with HS 578T breast, in the test on NCI-H23 lung and with OVCAR-3 ovarian was > 100 µM in each case. Further, the TGI with SF-295 CNS, in the test with SF-539 CNS and with K-562 leukemia was > 100 µM throughout.

As to `COP(=O)(OC)C1=c2c(C)noc2=C2C=COC2C1=O` (stereo unspecified), the TGI in the test with MDA-N, in the test on NCI/ADR-RES ovarian, with BT-549 breast, in the test on HS 578T breast, with NCI-H23 lung and with OVCAR-3 ovarian was > 100 µM in each case. Besides, the TGI with SF-295 CNS, with SF-539 CNS and in the test on K-562 leukemia was > 100 µM in each case.

As to `Cc1cc(C)nc(NS(=O)(=O)c2ccc(NC(=O)c3ccc4nc5ccccc5c(Nc5ccc(S(N)(=O)=O)cc5)c4c3)cc2)n1`, the TGI in the test on T-47D breast, with NCI/ADR-RES ovarian, in the test on BT-549 breast, with HS 578T breast, with NCI-H23 lung and with OVCAR-3 ovarian was > 100 µM each time. For the same molecule, the TGI in the test with SF-295 CNS, in the test on SF-539 CNS and in the test with K-562 leukemia was > 100 µM throughout.
